Earlier results, collected in patent US20090227460A1, “STABILIZED OIL-IN-WATER EMULSIONS INCLUDING MEPTYL DINOCAP” (Dow AgroSciences LLC, priority 2008, published 2009).

Question: With “2,6-dinitro-4-octylphenyl crotonates and 2,4-dinitro-6-octylphenyl crotonates in which ‘octyl’ is a mixture of 1-methylheptyl, 1-ethylhexyl and 1-propylpentyl groups [Meptyl Dinocap]” as the substance, how does the solubility in water read?
Answer: 0.151 µg/mL
